Earlier results as cited in US11793177B2, “Animal model of Angelman Syndrome” (UNIVERSITY OF SOUTH FLORIDA, priority 2016, dated 2023).

Test system: GR
Conditions: treatment in adulthood; rodent

Question: Which “GR levels in the hippocampus” value does the source give for `CC(/C=C/C(=O)NO)=C\[C@@H](C)C(=O)c1ccc(N(C)C)cc1` [TSA] here?
Answer: increased

Question: What about the “repressive histone and methylation marks in the hippocampus” value of the same compound?
Answer: reversed
